In patent US9045459B2, “Phenalkylamine derivatives, pharmaceutical compositions containing them, and their use in therapy” (AbbVie Deutschland GmbH & Co. KG, priority 2010, dated 2015):

Target: human GlyT1c transporter (Homo sapiens (Human), UniProt P48067)
Test: Radioligand binding assay using recombinant CHO cell membranes expressing human GlyT1
Settings: read-out: radioligand binding Kiapp
Method: 2. Radioligand binding assays using recombinant CHO cell membranes expressing human GlyT1:
Radioligand binding to human GlyT1c transporter-expressing membranes was determined as described in Mezler et al., Molecular Pharmacology 74:1705-1715, 2008.

Sequence of human GlyT1c transporter (P48067 whole entry): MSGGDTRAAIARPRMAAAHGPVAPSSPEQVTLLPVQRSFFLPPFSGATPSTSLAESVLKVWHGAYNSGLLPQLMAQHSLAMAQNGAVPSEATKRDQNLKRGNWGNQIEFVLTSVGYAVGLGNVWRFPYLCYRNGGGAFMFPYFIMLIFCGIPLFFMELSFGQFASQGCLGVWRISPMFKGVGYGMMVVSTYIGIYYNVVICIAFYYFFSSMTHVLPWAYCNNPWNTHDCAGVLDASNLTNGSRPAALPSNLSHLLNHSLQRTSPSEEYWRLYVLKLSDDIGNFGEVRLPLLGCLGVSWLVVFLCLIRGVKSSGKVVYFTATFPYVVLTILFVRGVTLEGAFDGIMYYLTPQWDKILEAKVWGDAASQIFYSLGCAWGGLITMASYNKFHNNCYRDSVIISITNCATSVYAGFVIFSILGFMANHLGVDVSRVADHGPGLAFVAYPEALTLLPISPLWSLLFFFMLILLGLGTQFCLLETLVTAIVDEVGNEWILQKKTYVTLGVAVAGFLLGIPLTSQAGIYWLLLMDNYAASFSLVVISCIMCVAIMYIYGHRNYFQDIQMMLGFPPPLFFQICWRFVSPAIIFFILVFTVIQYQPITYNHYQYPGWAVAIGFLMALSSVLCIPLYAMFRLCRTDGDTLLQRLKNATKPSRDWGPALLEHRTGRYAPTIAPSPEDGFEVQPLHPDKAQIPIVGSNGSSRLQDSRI

Row | SMILES | Ki
1 | Cn1cc(S(=O)(=O)N2CCc3ccc(C(CN)Cc4ccccc4)cc3C2)cn1 (centres unmarked) [Example 2, 2-(2-(1-Methyl-1H-pyrazol-4-ylsulfonyl)-1,2,3,4-tetrahydroisoquinolin-7-yl)-3-phenylpropan-1-amine] | ≤ 10 µM
2 | Cn1cnc(S(=O)(=O)N2CCc3ccc(C(CN)Cc4ccccc4)cc3C2)c1 (centres unmarked) [Example 1, 2-(2-(1-Methyl-1H-imidazol-4-ylsulfonyl)-1,2,3,4-tetrahydroisoquinolin-7-yl)-3-phenylpropan-1-amine] | ≤ 10 µM
